Assay results as given in patent US9453026B2, “ACC inhibitors and uses thereof” (Gilead Apollo, Inc., priority 2011, dated 2016).

Experiments:
ACC2 = ACC2 (Homo sapiens, UniProt O00763); test: In vitro ACC2 inhibition assay (ADP-Glo); type: biochemical; details: read-out: ACC2
Summary of the method: (§1)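 Enzyme (human ACC1 or ACC2) and compound, serially diluted 1:3 over 11 points from a 600 uM DMSO stock, were preincubated 15 min before substrate addition.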

ACC1 = ACC1 (Homo sapiens, UniProt Q13085); test: In vitro ACC1 inhibition assay (ADP-Glo); type: biochemical; details: read-out: ACC1
Summary of the method: as §1

ACC2, sequence (O00763 whole entry, species assumed): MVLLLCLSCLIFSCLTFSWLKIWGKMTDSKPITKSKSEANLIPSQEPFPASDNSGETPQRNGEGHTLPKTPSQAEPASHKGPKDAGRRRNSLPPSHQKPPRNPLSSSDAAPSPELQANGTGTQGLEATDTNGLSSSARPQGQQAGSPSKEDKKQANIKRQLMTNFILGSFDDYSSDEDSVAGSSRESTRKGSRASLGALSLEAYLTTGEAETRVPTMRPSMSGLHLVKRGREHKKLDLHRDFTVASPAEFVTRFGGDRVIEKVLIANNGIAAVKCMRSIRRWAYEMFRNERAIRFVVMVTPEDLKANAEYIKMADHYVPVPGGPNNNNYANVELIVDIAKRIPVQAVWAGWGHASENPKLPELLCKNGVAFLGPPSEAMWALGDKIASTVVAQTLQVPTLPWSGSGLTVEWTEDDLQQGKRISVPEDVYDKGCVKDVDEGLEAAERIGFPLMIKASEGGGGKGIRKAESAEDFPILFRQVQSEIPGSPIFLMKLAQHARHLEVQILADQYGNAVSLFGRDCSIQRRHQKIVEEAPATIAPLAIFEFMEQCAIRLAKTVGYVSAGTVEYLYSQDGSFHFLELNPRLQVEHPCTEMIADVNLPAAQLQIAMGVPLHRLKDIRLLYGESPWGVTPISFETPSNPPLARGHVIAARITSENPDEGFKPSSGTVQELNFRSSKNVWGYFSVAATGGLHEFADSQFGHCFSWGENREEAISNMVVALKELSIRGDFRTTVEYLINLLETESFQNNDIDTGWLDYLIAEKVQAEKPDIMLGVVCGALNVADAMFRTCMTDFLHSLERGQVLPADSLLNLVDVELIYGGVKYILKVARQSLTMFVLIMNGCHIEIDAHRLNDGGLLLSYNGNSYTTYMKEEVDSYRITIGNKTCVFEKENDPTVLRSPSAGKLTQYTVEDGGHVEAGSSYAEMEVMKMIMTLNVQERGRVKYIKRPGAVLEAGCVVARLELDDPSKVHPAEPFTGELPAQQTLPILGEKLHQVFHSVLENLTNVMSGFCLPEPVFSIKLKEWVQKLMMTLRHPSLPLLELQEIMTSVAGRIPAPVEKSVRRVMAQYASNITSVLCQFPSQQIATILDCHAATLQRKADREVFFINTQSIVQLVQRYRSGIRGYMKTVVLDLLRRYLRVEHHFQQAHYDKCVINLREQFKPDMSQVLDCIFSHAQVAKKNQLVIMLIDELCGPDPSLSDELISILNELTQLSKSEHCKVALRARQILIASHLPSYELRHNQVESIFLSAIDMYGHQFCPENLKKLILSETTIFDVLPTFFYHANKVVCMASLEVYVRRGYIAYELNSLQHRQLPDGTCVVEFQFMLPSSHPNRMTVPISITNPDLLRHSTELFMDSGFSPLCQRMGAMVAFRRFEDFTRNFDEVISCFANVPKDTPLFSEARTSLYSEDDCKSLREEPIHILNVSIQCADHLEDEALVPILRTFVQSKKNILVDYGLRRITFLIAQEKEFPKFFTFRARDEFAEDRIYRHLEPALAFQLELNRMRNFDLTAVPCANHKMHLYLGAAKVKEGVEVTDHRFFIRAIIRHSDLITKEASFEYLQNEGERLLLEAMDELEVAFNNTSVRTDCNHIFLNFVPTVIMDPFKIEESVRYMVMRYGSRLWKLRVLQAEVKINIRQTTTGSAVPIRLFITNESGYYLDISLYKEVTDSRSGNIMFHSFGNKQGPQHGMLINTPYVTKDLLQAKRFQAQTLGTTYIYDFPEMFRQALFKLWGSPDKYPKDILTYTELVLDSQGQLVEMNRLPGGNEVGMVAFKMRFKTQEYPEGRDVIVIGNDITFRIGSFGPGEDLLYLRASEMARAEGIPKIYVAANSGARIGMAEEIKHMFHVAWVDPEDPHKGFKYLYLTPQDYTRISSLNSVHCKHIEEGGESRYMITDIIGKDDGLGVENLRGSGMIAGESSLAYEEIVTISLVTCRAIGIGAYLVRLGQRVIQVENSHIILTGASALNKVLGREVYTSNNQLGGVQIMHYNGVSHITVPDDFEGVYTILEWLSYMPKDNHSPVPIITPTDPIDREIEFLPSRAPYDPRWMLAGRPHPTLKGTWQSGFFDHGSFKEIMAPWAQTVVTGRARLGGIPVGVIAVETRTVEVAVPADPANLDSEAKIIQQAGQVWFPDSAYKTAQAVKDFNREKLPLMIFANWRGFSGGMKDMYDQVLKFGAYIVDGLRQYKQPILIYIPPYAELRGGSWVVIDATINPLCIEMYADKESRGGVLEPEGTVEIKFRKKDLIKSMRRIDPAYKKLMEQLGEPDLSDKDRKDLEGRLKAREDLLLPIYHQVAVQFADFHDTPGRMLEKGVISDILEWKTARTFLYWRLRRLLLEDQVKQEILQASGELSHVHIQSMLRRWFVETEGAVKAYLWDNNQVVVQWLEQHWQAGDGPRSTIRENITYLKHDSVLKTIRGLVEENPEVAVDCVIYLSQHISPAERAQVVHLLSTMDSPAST

Row | Compound | IC50 (ACC2) [µM] | IC50 (ACC1) [µM]
1 | CCOC(=O)c1sc2c(c1C)c(=O)n(CCS(C)(=O)=O)c(=O)n2CCc1ccccc1 [I-52] | > 50 | > 50
2 | CCOC(=O)c1sc2c(c1C)c(=O)n(C(C)(C)C(=O)O)c(=O)n2C[C@H](OC(C)C)c1ccccc1 [I-108, 2-[6-(ethoxycarbonyl)-5-methyl-2,4-dioxo-1-[(2R)-2-phenyl-2-(propan-2-yloxy)ethyl]-1H,2H,3H,4H-thieno[2,3-d]pyrimidin-3-yl]-2-methylpropanoic acid] | < 1 | < 0.1
3 | CCOC(=O)c1sc2c(c1C)c(=O)n(C(C)(C)C(=O)O)c(=O)n2CCc1ccccc1 [I-70, 2-[6-(ethoxycarbonyl)-5-methyl-2,4-dioxo-1-(2-phenylethyl)-1H,2H,3H,4H-thieno[2,3-d]pyrimidin-3-yl]-2-methylpropanoic acid] | < 1 | < 1
4 | CCOC(=O)c1sc2c(c1C)c(=O)n(CCO)c(=O)n2CCc1ccccc1 [I-1] | 5 to 20 | < 5
5 | CCOC(=O)c1sc2c(c1C)c(=O)n(CC(=O)O)c(=O)n2CCc1ccccc1F [I-32, 2-[6-(ethoxycarbonyl)-1-[2-(2-fluorophenyl)ethyl]-5-methyl-2,4-dioxo-1H,2H,3H,4H-thieno[2,3-d]pyrimidin-3-yl]acetic acid] | < 5 | < 5
6 | CCOC(=O)c1sc2c(c1C)c(=O)n(C(C)(C)C(=O)O)c(=O)n2C[C@H](OCC(C)C)c1ccccc1 [I-123, 2-[6-(ethoxycarbonyl)-5-methyl-1-[(2R)-2-(2-methylpropoxy)-2-phenylethyl]-2,4-dioxo-1H,2H,3H,4H-thieno[2,3-d]pyrimidin-3-yl]-2-methylpropanoic acid] | < 1 | < 0.1
7 | CCOC(=O)c1sc2c(c1C)c(=O)n(C(C)(C)C(=O)O)c(=O)n2CCc1ccccc1OC [I-93, 2-[6-(ethoxycarbonyl)-1-[2-(2-methoxyphenyl)ethyl]-5-methyl-2,4-dioxo-1H,2H,3H,4H-thieno[2,3-d]pyrimidin-3-yl]-2-methylpropanoic acid] | < 1 | < 1
8 | Cc1c(-c2ncco2)sc2c1c(=O)n(C(C)(C)C(=O)O)c(=O)n2C[C@H](OC1CCC(=O)CC1)c1ccccc1 [I-145, (R)-2-methyl-2-(5-methyl-6-(oxazol-2-yl)-2,4-dioxo-1-(2-((4-oxocyclohexyl)oxy)-2-phenylethyl)-1,2-dihydrothieno[2,3-d]pyrimidin-3(4H)-yl)propanoic acid] | < 1 | < 0.1
9 | CCOc1ccccc1CCn1c(=O)n(C(C)(C)C(N)=O)c(=O)c2c(C)c(-c3ncco3)sc21 [I-139, 2-[1-[2-(2-ethoxyphenyl)ethyl]-5-methyl-6-(1,3-oxazol-2-yl)-2,4-dioxo-1H,2H,3H,4H-thieno[2,3-d]pyrimidin-3-yl]-2-methylpropanamide] | < 1 | < 1
10 | CCOC(=O)c1sc2c(c1C)c(=O)n(CC(=O)O)c(=O)n2CCc1ccccc1 [I-13] | < 5 | < 5
11 | CCOC(=O)c1sc2c(c1C)c(=O)n(CC(=O)O)c(=O)n2CC(OC(C)C)c1ccccc1 (stereo in doubt) [I-96, (S)-2-(6-(ethoxycarbonyl)-1-(2-isopropoxy-2-phenylethyl)-5-methyl-2,4-dioxo-1,2-dihydrothieno[2,3-d]pyrimidin-3(4H)-yl)acetic acid] | 5 to 20 | < 0.1

Continued, values first:

Row | IC50 (ACC2) [µM] | IC50 (ACC1) [µM] | Compound
12 | < 0.1 | < 0.1 | COc1ccccc1[C@H](Cn1c(=O)n(C(C)(C)C(N)=O)c(=O)c2c(C)c(-c3ncco3)sc21)O[C@H]1CC[C@@H](O)CC1 [I-279, 2-[1-[(2R)-2-[(4-hydroxycyclohexyl)oxy]-2-(2-methoxyphenyl)ethyl]-5-methyl-6-(1,3-oxazol-2-yl)-2,4-dioxo-1H,2H,3H,4H-thieno[2,3-d]pyrimidin-3-yl]-2-methylpropanamide]
13 | < 0.1 | < 0.1 | Cc1c(-c2ncco2)sc2c1c(=O)n(C(C)(C)C(=O)O)c(=O)n2C[C@H](OC1CCOCC1)c1ccccc1OC(F)F [I-264, 2-[1-[(2R)-2-[2-(difluoromethoxy)phenyl]-2-(oxan-4-yloxy)ethyl]-5-methyl-6-(1,3-oxazol-2-yl)-2,4-dioxo-1H,2H,3H,4H-thieno[2,3-d]pyrimidin-3-yl]-2-methylpropanoic acid]
14 | < 0.1 | < 0.1 | Cc1ccccc1[C@H](Cn1c(=O)n(C(C)(C)C(=O)O)c(=O)c2c(C)c(-c3ncco3)sc21)OC1CCOCC1 [I-282, 2-methyl-2-[5-methyl-1-[(2R)-2-(2-methylphenyl)-2-(oxan-4-yloxy)ethyl]-6-(1,3-oxazol-2-yl)-2,4-dioxo-1H,2H,3H,4H-thieno[2,3-d]pyrimidin-3-yl]propanoic acid]
15 | < 0.1 | < 0.1 | COc1ccccc1[C@H](Cn1c(=O)n(C(C)(C)C(=O)N2CCC2)c(=O)c2c(C)c(-c3ncco3)sc21)OC1CCOCC1 [I-247, 3-[1-(azetidin-1-yl)-2-methyl-1-oxopropan-2-yl]-1-[(2R)-2-(2-methoxyphenyl)-2-(oxan-4-yloxy)ethyl]-5-methyl-6-(1,3-oxazol-2-yl)-1H,2H,3H,4H-thieno[2,3-d]pyrimidine-2,4-dione]
16 | < 0.1 | < 0.1 | Cc1c(-c2ncco2)sc2c1c(=O)n(C(C)(C)C(=O)O)c(=O)n2C[C@H](O[C@H]1CC[C@H](O)CC1)c1ccccc1OC(C)C [I-294, 2-(1-((R)-2-(((1r,4R)-4-hydroxycyclohexyl)oxy)-2-(2-isopropoxyphenyl)ethyl)-5-methyl-6-(oxazol-2-yl)-2,4-dioxo-1,2-dihydrothieno[2,3-d]pyrimidin-3(4H)-yl)-2-methylpropanoic acid]
17 | < 0.1 | < 0.1 | CCc1ccccc1[C@H](Cn1c(=O)n(C(C)(C)C(=O)O)c(=O)c2c(C)c(-c3ncco3)sc21)OCCO [I-255, 2-[1-[(2R)-2-(2-ethylphenyl)-2-(2-hydroxyethoxy)ethyl]-5-methyl-6-(1,3-oxazol-2-yl)-2,4-dioxo-1H,2H,3H,4H-thieno[2,3-d]pyrimidin-3-yl]-2-methylpropanoic acid]
18 | < 0.1 | < 0.1 | Cc1c(-c2ncco2)sc2c1c(=O)n(C(C)(C)C(=O)O)c(=O)n2C[C@H](OC(C)C)c1ccccc1OC(F)F [I-267, 2-[1-[(2R)-2-[2-(difluoromethoxy)phenyl]-2-(propan-2-yloxy)ethyl]-5-methyl-6-(1,3-oxazol-2-yl)-2,4-dioxo-1H,2H,3H,4H-thieno[2,3-d]pyrimidin-3-yl]-2-methylpropanoic acid]
19 | < 0.1 | < 0.1 | COc1ccccc1[C@H](Cn1c(=O)n(CC(=O)O)c(=O)c2c(C)c(-c3ncco3)sc21)OC1CCOCC1 [I-286, 2-[1-[(2R)-2-(2-methoxyphenyl)-2-(oxan-4-yloxy)ethyl]-5-methyl-6-(1,3-oxazol-2-yl)-2,4-dioxo-1H,2H,3H,4H-thieno[2,3-d]pyrimidin-3-yl]acetic acid]
20 | < 0.1 | < 0.1 | COc1ccccc1[C@H](Cn1c(=O)n(C(C)(C)C(=O)N2CCCCC2)c(=O)c2c(C)c(-c3ncco3)sc21)OC(C)C [I-239, 1-[(2R)-2-(2-methoxyphenyl)-2-(propan-2-yloxy)ethyl]-5-methyl-3-[2-methyl-1-oxo-1-(piperidin-1-yl)propan-2-yl]-6-(1,3-oxazol-2-yl)-1H,2H,3H,4H-thieno[2,3-d]pyrimidine-2,4-dione]
21 | < 0.1 | < 0.1 | COc1ccccc1[C@H](Cn1c(=O)n(C(C)(C)CO)c(=O)c2c(C)c(-c3ncco3)sc21)OC1CCOCC1 [I-290, 3-(1-hydroxy-2-methylpropan-2-yl)-1-[(2R)-2-(2-methoxyphenyl)-2-(oxan-4-yloxy)ethyl]-5-methyl-6-(1,3-oxazol-2-yl)-1H,2H,3H,4H-thieno[2,3-d]pyrimidine-2,4-dione]
22 | < 0.1 | < 0.1 | CCOc1ccccc1[C@H](Cn1c(=O)n(C(C)(C)C(=O)O)c(=O)c2c(C)c(-c3ncco3)sc21)OCCO [I-256, 2-[1-[(2R)-2-(2-ethoxyphenyl)-2-(2-hydroxyethoxy)ethyl]-5-methyl-6-(1,3-oxazol-2-yl)-2,4-dioxo-1H,2H,3H,4H-thieno[2,3-d]pyrimidin-3-yl]-2-methylpropanoic acid]
23 | < 0.1 | < 0.1 | CCOc1ccccc1[C@H](Cn1c(=O)n(C(C)(C)C(=O)O)c(=O)c2c(C)c(-c3ncco3)sc21)OC(C)C [I-177, 2-[1-[(2R)-2-(2-ethoxyphenyl)-2-(propan-2-yloxy)ethyl]-5-methyl-6-(1,3-oxazol-2-yl)-2,4-dioxo-1H,2H,3H,4H-thieno[2,3-d]pyrimidin-3-yl]-2-methylpropanoic acid]
24 | < 0.1 | < 0.1 | Cc1c(-c2ncco2)sc2c1c(=O)n(C(C)(C)C(=O)O)c(=O)n2C[C@H](O[C@H]1CC[C@@H](O)CC1)c1ccccc1OC(C)C [I-295, 2-(1-((R)-2-(((1s,4S)-4-hydroxycyclohexyl)oxy)-2-(2-isopropoxyphenyl)ethyl)-5-methyl-6-(oxazol-2-yl)-2,4-dioxo-1,2-dihydrothieno[2,3-d]pyrimidin-3(4H)-yl)-2-methylpropanoic]
25 | < 0.1 | < 0.1 | CCc1ccccc1[C@H](Cn1c(=O)n(C(C)(C)C(=O)O)c(=O)c2c(C)c(-c3ncco3)sc21)O[C@H]1CC[C@@H](O)CC1 [I-245, 2-(1-((R)-2-(2-ethylphenyl)-2-(((1s,4S)-4-hydroxycyclohexyl)oxy)ethyl)-5-methyl-6-(oxazol-2-yl)-2,4-dioxo-1,2-dihydrothieno[2,3-d]pyrimidin-3(4H)-yl)-2-methylpropanoic acid]
26 | < 0.1 | < 0.1 | Cc1c(-c2ncco2)sc2c1c(=O)n(C(C)(C)C(=O)O)c(=O)n2C[C@H](OC1CCOCC1)c1ccccc1OC(C)C [I-291, 2-methyl-2-[5-methyl-1-[(2R)-2-(oxan-4-yloxy)-2-[2-(propan-2-yloxy)phenyl]ethyl]-6-(1,3-oxazol-2-yl)-2,4-dioxo-1H,2H,3H,4H-thieno[2,3-d]pyrimidin-3-yl]propanoic acid]
